Here are results for 11 molecules from patent US10231956B2, “3-(1H-pyrrolo[3,2-C]pyridin-2-YL)-1 H-pyrazolo[4,3-B]pyridines and therapeutic uses thereof” (Samumed, LLC, priority 2015, dated 2019).

The structures appear in SMILES notation.

Common to all, as to format: cell-based
Test [1] has as its system SW480 colon cancer cells. In words: Cell viability assay (CellTiter-Blue) in SW480 colon cancer cells. The following applies: Homo sapiens; for EC50: 96 h, four days, CellTiter-Blue; for inhibition at 10 µM: given for EC50 >10 μM, read-out: percent inhibition at 10 μM. The protocol:
Representative compounds were screened using the following assay procedure to assess the effect on cell viability as described below.
Each compound was dissolved in DMSO as a 10 mM stock and used to prepare compound source plates. Serial dilution (1:3, 8-point dose-response curves from 10 μM to 0.0045 μM) and compound transfer was performed using the ECHO 550 (Labcyte, Sunnyvale, Calif.) into 96-well clear bottom, black-walled plates (Corning-Costar).
Approximately 2×10^3 SW480 colon cancer cells were seeded into each well and allowed to incubate in the presence or absence of compound for four days at 37° C./5% CO2. Eight replicates of DMSO-treated cells served as controls and cells treated with compound were performed in duplicate.
After incubation, 20 μL of CellTiter-Blue (Promega) was added to each well allowed to incubate for approximately 3 hours. This reagent was a buffered solution which contains resazurin, metabolically active cells were able to reduce rezarurin (blue) into resorufin (pink) which was highly fluorescent. This measured fluorescence was used as a readout for cell viability.
After incubation, the plates were read at Ex 560 nm Em 590 nm (Cytation 3, BioTek). Dose-response curves were generated and EC50 concentration values were calculated using non-linear regression curve fit in the GraphPad Prism (San Diego, Calif.) or Dotmatics' Studies Software (Bishops Stortford, UK). For EC50 of >10 μM, the percent inhibition at 10 μM is provided.

Test [2] concerns primary human fibroblasts derived from IPF patients (LL29 cells). The test is described as follows: Inhibition of fibrotic process: αSMA staining in TGF-β1 treated LL29 fibroblasts. The following applies: Fibroblast; for EC50: 96 h, TGF-β1 20 ng/mL, 4 days, % cells positive for αSMA; for inhibition at 10 µM: given for EC50 >10 μM, TGF-β1, αSMA, read-out: percent inhibition at 10 μM. The text has this:
Representative compounds were screened using primary human fibroblasts (derived from IPF patients) treated with TGF-β1 to determine their ability to inhibit the fibrotic process.
Human Fibroblast Cell Culture: Primary human fibroblasts derived from IPF patients (LL29 cells) [^1Xiaoqiu Liu, et. al., “Fibrotic Lung Fibroblasts Show Blunted Inhibition by cAMP Due to Deficient cAMP Response Element-Binding Protein Phosphorylation”, Journal of Pharmacology and Experimental Therapeutics (2005), 315(2), 678-687; ^2Watts, K. L., et. al., “RhoA signaling modulates cyclin D1 expression in human lung fibroblasts; implications for idiopathic pulmonary fibrosis”, Respiratory Research (2006), 7(1), 88] were obtained from American Type Culture Collection (ATCC) and expanded in F12 medium supplemented with 15% Fetal Bovine Serum and Penicillin/Streptomycin.
Compound Screening: Each compound was dissolved in DMSO as a 10 mM stock and used to prepare compound source plates. Serial dilution (1:2, 11-point dose-response curves from […]) and compound transfer was performed using the ECHO 550 (Labcyte, Sunnyvale, Calif.) into 384-well clear bottom assay plates (Greiner Bio-One) with appropriate DMSO backfill for a final DMSO concentration of 0.1%. LL29 cells are plated at 1,500 cells/well in 80 μL/well F12 medium supplemented with 1% Fetal Bovine Serum. One hour after addition of the cells, TGF-β1 (Peprotech; 20 ng/mL) was added to the plates to induce fibrosis (ref. 1 and 2 above). Wells treated with TGF-β1 and containing DMSO were used as controls. Cells were incubated at 37° C. and 5% CO2 for 4 days. Following incubation for 4 days, SYTOX green nucleic acid stain (Life Technologies [Thermo Fisher Scientific]) was added to the wells at a final concentration of 1 μM and incubated at room temperature for 30 min. Cells were then fixed using 4% formaldehyde (Electron Microscopy Sciences), washed 3 times with PBS followed by blocking and permeabilization using 3% Bovine Serum Albumin (BSA; Sigma) and 0.3% Triton X-100 (Sigma) in PBS. Cells were then stained with antibody specific to α-smooth muscle actin (αSMA; Abcam) (ref. 1 and 2 above) in 3% Bovine Serum Albumin (BSA; Sigma) and 0.3% Triton X-100 (Sigma) in PBS, and incubated overnight at 4° C. Cells were then washed 3 times with PBS, followed by incubation with Alexa Flor-647 conjugated secondary antibody (Life Technologies [Thermo Fisher Scientific]) and DAPI at room temperature for 1 hour. Cells were then washed 3 times with PBS and plates were sealed for imaging. αSMA staining was imaged by excitation at 630 nm and emission at 665 nm and quantified using the Compartmental Analysis program on the CellInsight CX5 (Thermo Scientific). Dead or apoptotic cells were excluded from analysis based on positive SYTOX green staining. % of total cells positive for αSMA were counted in each well and normalized to the average of 11 wells treated with TGF-β1 on the same plate using Dotmatics' Studies Software. The normalized averages (fold change over untreated) of 3 replicate wells for each compound concentration were used to create dose-responses curves and EC50 values were calculated using non-linear regression curve fit in the Dotmatics' Studies Software. For EC50 of >10 μM, the percent inhibition at 10 μM is provided.

Test [3] deals with IL-6. In words: IL-6 inhibition in LPS-stimulated THP-1 cells (HTRF). As to conditions: Homo sapiens; for EC50: LPS 500 ng/mL, 22 hours, IL6 HTRF; for inhibition at 10 µM: given for EC50 >10 μM, LPS, IL6, 10 μM, read-out: percent inhibition at 10 μM. Here is the method: Human Monocyte Cell Culture: Human monocyte cell line (THP-1 cells; Catalog # TIB-202, ATCC, Manassas, Va.) were cultured in Roswell Park Memorial Institute (RPMI) 1640 Medium (Catalog #21870-100, Buffalo, N.Y.) with 1% L-glutamine, 1% HEPES, 1% Sodium Pyruvate, 2% Sodium Bicarbonate supplemented with 100 units/mL penicillin, 50 μg/mL streptomycin, 2-mercaptoethanol (0.05 mM) [basal medium] and 10% fetal bovine serum (Catalog #16140089, Life Technologies, Carlsbad, Calif.) at 37° C. and 5% CO2.
Compound Screening: THP-1 cells were cultured in basal media with 1% FBS for 24 hours before the start of the assay. Each compound was dissolved in DMSO as a 10 mM stock and used to prepare compound source plates. Serial dilution (1:3, 10-point dose-response curves starting from 1 μM) and compound transfer was performed using the ECHO 550 (Labcyte, Sunnyvale, Calif.) into 384-well white low volume assay plates (Greiner Bio-One) with appropriate DMSO backfill for a final DMSO concentration of 0.1%. THP-1 cells were plated at 5000 cells/well in the 384-well plates and incubated at 37° C. for 2 h. 500 ng/mL of LPS was added after 2 hours and cells were incubated for another 22 hours at 37° C. Plates were spun in a centrifuge for 1 minute at 10,000 rpm and a mixture of anti-IL6 XL665, and anti-IL6 Cryptate diluted in reconstitution buffer (Cisbio Inc.) was added to each well. Following incubation for 3 hrs at room temperature, Homogeneous Time-Resolved Fluorescence (HTRF) was measured using the Envision (Perkin Elmer) at 665 nm and […]. The ratio of fluorescence at 665 nm to 620 nm was used as a readout for IL6 quantification. All samples were processed in duplicate. Readings were normalized to DMSO treated cells and normalized activities were utilized for EC50 calculations using the dose-response log (inhibitor) vs. response-variable slope (four parameters) nonlinear regression feature available in GraphPad Prism 5.0 (or Dotmatics). For EC50 of >10 μM, the percent inhibition at 10 μM is provided.

As to `c1cncc(-c2ccc3[nH]nc(-c4cc5c(N6CCCCC6)nccc5[nH]4)c3n2)c1` [Compound 172, 3-(4-(Piperidin-1-yl)-1H-pyrrolo[3,2-c]pyridin-2-yl)-5-(pyridin-3-yl)-1H-pyrazolo[4,3-b]pyridine], the EC50 was 0.543 µM in test [1], 0.089 µM in test [2] and 0.084 µM in test [3].
Take `CCCCC(=O)Nc1cncc(-c2ccc3[nH]nc(-c4cc5c(N6CCCCC6)nccc5[nH]4)c3n2)c1` [Compound 187, N-(5-(3-(4-(Piperidin-1-yl)-1H-pyrrolo[3,2-c]pyridin-2-yl)-1H-pyrazolo[4,3-b]pyridin-5-yl)pyridin-3-yl)pentanamide]: the concentration giving a half-maximal response (EC50) is 4.46 µM in test [1], 2.22 µM in test [2] and 0.102 µM in test [3].
`CS(=O)(=O)NCc1cc(F)cc(-c2nccc3[nH]c(-c4n[nH]c5ccc(-c6cncc(NC(=O)C7CCCC7)c6)nc45)cc23)c1` [Compound 498, N-(5-(3-(4-(3-Fluoro-5-(methylsulfonamidomethyl)phenyl)-1H-pyrrolo[3,2-c]pyridin-2-yl)-1H-pyrazolo[4,3-b]pyridin-5-yl)pyridin-3-yl)cyclopentanecarboxamide]: the EC50 in test [1] was 1.98 µM; in test [2], greater than 10 µM; in test [3], 0.162 µM. Further, the inhibition at 10 µM in test [2] was 34.8%.
Consider `Fc1ccc(-c2nccc3[nH]c(-c4n[nH]c5ccc(-c6cncc(OC7CCNCC7)c6)nc45)cc23)cc1` [Compound 528, 3-(4-(4-Fluorophenyl)-1H-pyrrolo[3,2-c]pyridin-2-yl)-5-(5-(piperidin-4-yloxy)pyridin-3-yl)-1H-pyrazolo[4,3-b]pyridine], for which the figures for the concentration giving a half-maximal response (EC50) in test [1], in test [2] and in test [3] were 5.22 µM, 1.44 µM and 0.724 µM, respectively.
The matching figures for `CN(C)Cc1cncc(-c2ccc3[nH]nc(-c4cc5cnccc5[nH]4)c3n2)c1` [Compound 265, 1-(5-(3-(1H-Pyrrolo[3,2-c]pyridin-2-yl)-1H-pyrazolo[4,3-b]pyridin-5-yl)pyridin-3-yl)-N,N-dimethylmethanamine]: 0.907 µM, 3.12 µM and 0.866 µM.
With `c1cncc(-c2ccc3[nH]nc(-c4cc5cnccc5[nH]4)c3n2)c1` [Compound 256, 5-(Pyridin-3-yl)-3-(1H-pyrrolo[3,2-c]pyridin-2-yl)-1H-pyrazolo[4,3-b]pyridine], the EC50 in test [1] was found to be 0.161 µM; in test [2], 0.243 µM; in test [3], 0.073 µM.
In the case of `O=C(Nc1cncc(-c2ccc3[nH]nc(-c4cc5c(-c6ccc(F)cc6)nccc5[nH]4)c3n2)c1)c1ccccc1` [Compound 39, N-(5-(3-(4-(4-Fluorophenyl)-1H-pyrrolo[3,2-c]pyridin-2-yl)-1H-pyrazolo [4,3-b]pyridin-5-yl)pyridin-3-yl)benzamide], the EC50 is 0.177 µM in test [1], 0.302 µM in test [2] and greater than 10 µM in test [3]. Further, the inhibition at 10 µM in test [3] was 3.3%.
`CS(=O)(=O)NCc1cc(F)cc(-c2nccc3[nH]c(-c4n[nH]c5ccc(-c6cncnc6)nc45)cc23)c1` [Compound 503, N-(3-Fluoro-5-(2-(5-(pyrimidin-5-yl)-1H-pyrazolo[4,3-b]pyridin-3-yl)-1H-pyrrolo [3,2-c]pyridin-4-yl)benzyl)methanesulfonamide]: the EC50 in test [1], in test [2] and in test [3] was greater than 10 µM in each case. For the same molecule, the inhibition at 10 µM stood at 15.3% in test [1], 0% in test [2] and 7.6% in test [3].
`CS(=O)(=O)NCc1cc(F)cc(-c2nccc3[nH]c(-c4n[nH]c5ccc(-c6cncc(NC(=O)C7CCCCC7)c6)nc45)cc23)c1` [Compound 499, N-(5-(3-(4-(3-Fluoro-5-(methylsulfonamidomethyl)phenyl)-1H-pyrrolo[3,2-c]pyridin-2-yl)-1H-pyrazolo[4,3-b]pyridin-5-yl)pyridin-3-yl)cyclohexanecarboxamide]: the EC50 in test [1] stood at 1.42 µM; in test [2], 0.958 µM; in test [3], 0.542 µM.
As for `CS(=O)(=O)NCc1cc(F)cc(-c2nccc3[nH]c(-c4n[nH]c5ccc(-c6cncc(CN7CCC(F)(F)C7)c6)nc45)cc23)c1` [Compound 502, N-(3-(2-(5-(5-((3,3-Difluoropyrrolidin-1-yl)methyl)pyridin-3-yl)-1H-pyrazolo[4,3-b]pyridin-3-yl)-1H-pyrrolo[3,2-c]pyridin-4-yl)-5-fluorobenzyl) methanesulfonamide], the EC50 in test [1] was 0.81 µM; in test [2] it was 0.218 µM; in test [3], 0.349 µM.
`CS(=O)(=O)NCc1cc(F)cc(-c2nccc3[nH]c(-c4n[nH]c5ccc(-c6ccccn6)nc45)cc23)c1` [Compound 504, N-(3-Fluoro-5-(2-(5-(pyridin-2-yl)-1H-pyrazolo[4,3-b]pyridin-3-yl)-1H-pyrrolo[3,2-c]pyridin-4-yl)benzyl)methanesulfonamide]: the EC50 in test [1] is greater than 10 µM; in test [2], 1.94 µM; in test [3], greater than 10 µM. Besides, the inhibition at 10 µM stood at 44.7% in test [1] and 0% in test [3].
